Laboratory results: US12121565B2, “Methods of treatment of specific cancers with NLRP3 inhibitors and anti-PD1/PD-L1 antibodies” (Duke University, priority 2019, dated 2024)

Test system: BRAFV600E PTEN−/− melanoma cell line
Assay: In vitro treatment of melanoma cell line followed by Western blot, qRT-PCR, IP, ASC polymerization or ELISA
Type: cell-based, mouse
Details: with or without NLRP3 inhibitor MCC950
Excerpt: Braf^V600EPten^−/− (male, BPD6 (40)), Braf^V600EPten^−/−-Wnt5a^KD (40), Braf^V600EPten^−/−-CXCL5^KD, Braf^V600EPten^−/−-PDL1^KD, Braf^V600EPten^−/−-NLRP3^KD, OVA-expressing Braf^V600EPten^−/−, BRAF^V600EPTEN^−/−-STAT3^CA, and Braf^V600EPten^−/−-NTC (40) cell lines were generated using shRNA-expressing lentiviral vectors and cultured as previously described (40): shNLRP3 (Sigma, SHCLN-NM_145827), shPDL1 (Sigma, SHCLND-NM_021893), shWnt5a (Sigma, SHCLND-NM_009524), shTLR4 (Sigma, SHCLNG-NM_025817, and pLKO.1-puro empty vector control (NTC) (Sigma, SHC001). Stable cell lines were selected by puromycin resistance (Sigma-Aldrich, P8833). Murine Lewis Lung Carcinoma (LLC) cell line is from ATCC (1704526). All cell lines were tested Mycoplasma-free by Duke University Cell Culture Facility shared services. All Braf^V600EPten^−/− cell lines and the LLC cell line were maintained at 37° C. in DMEM (Invitrogen) with 2 mM L-glutamine, supplemented with 10% fetal bovine serum, 100 units/ml penicillin. Depending on the experiment, cell lines were treated with Wnt5a (100-200 ng/ml, R&D Systems/Bio-techne, 645-WN-010), IFNγ (100 ng/ml, BioAbChem, 42-IFNg), anti-PD-L1 ab (1-2 μg/ml), Hsp70 (1 μM-10 μM, Enzo, ADI-ESP-502-D), Hsp70 inhibitor (ThermoFisher, VER155008), CLI-095 TLR4 inhibitor (3 μM-10 μM, Invivogen, tlrl-cli95), TLR2-IN-C29 TLR2 inhibitor (1 μM-10 μM, Glixx, GLXC-06203), MPLA TLR4 agonist (10 μM, Enzo, ALX-581-205-C100), LPS (Lipopolysaccharide) (10 ng, Sigma-Aldrich, L4391-1MG), ATP (1 mM-5 mM, Invivogen, tlrl-atpl), MCC950 NLRP3 inhibitor (2.5 μM-10 μM, Invivogen, inh-mcc), XAV939 β-catenin inhibitor (0.5-1.0 μM, Sigma-Aldrich, X3004-5MG), 2-Aminopurine PKR inhibitor (1 mM-5 mM, Invivogen, tlrl-apr), Verteporfin YAP inhibitor (0.1 μM-1 μM, R&D Systems/Bio-techne, 530510) or vehicle control either for 24 or 48 hrs prior to in vitro and in vivo experiments. Control siRNA (Santa Cruz, sc-37007). TLR4 siRNA (SantaCruz, sc-40261).
OT-1 CD8 cell activation was performed by incubating isolated splenocytes of OT-1 transgenic mice with IL-2 (100 U/ml) and SIINFEKL peptide (1 μg/ml, New England Peptide, BP10-915) for 3 days followed by magnetic bead CD8 purification according to the manufacturer's instructions (Miltenyi biotec, 130-104-075). Activated OT-1 CD8 cells were incubated with Braf^V600EPten^−/−-OVA cells and treated with anti-PD1 ab (1 μg/ml) for 72 hrs at a tumor cell:CD8^+ T cell ratio of 1:5. In separate experiments, Braf^V600EPten^−/− cells were treated with increasing concentrations of Dacarbazine (10 μmol-400 μmol).
Tumor tissue or cells were homogenized in NP40 lysis buffer (Sigma-Aldrich) supplemented with complete protease inhibitor and phosphatase inhibitor (Roche). Cells were lysed in Laemmli sample buffer after treatment and subjected to SDS-polyacrylamide gel electrophoresis. After transferring onto PVDF membranes (Bio-Rad), monoclonal and polyclonal primary antibodies and appropriate HRP-conjugated secondary antibodies were utilized for blotting. For the immunoprecipitation assays, cells were lysed with TBS buffer (50 mM Tris-HCl (pH 7.4), 150 mM NaCl) containing 0.5% Triton X-100, EDTA-free protease inhibitor cocktail and phosphatase inhibitor cocktail, precleared with protein A/G beads, and then incubated with 1 μg of appropriate antibodies or isotype control IgG on a rotator overnight at 4° C. then incubated with protein A/G-agarose at 4° C. for 1 hour. After 5 washes with TBS buffer, immunoprecipitated complexes were eluted in sample buffer by boiling and subjected to immunoblot analysis. Immunoblots were visualized by chemiluminescence substrate (ThermoFisher) and imaged by a ChemiDoc XRSplus system (BioRad). For the ASC polymerization assay, cells were lysed with TBS buffer containing 0.5% Triton X-100, EDTA-free protease inhibitor cocktail and phosphatase inhibitor cocktail. The lysates were centrifuged at 4,000 g at 4° C. for 15 min. […]

CC(C)(O)c1coc(S(=O)(=O)NC(=O)Nc2c3c(cc4c2CCC4)CCC3)c1 [MCC950, N-[[(1,2,3,5,6,7-hexahydro-s-indacen-4-yl)amino]carbonyl]-4-(1-hydroxy-1-methylethyl)-2-furansulfonamide]
ATP stimulation of HSP70 release: block
